Source: patent publication US20200270225A1, “Chiral Diacylhydrazine Ligands for Modulating the Expression of Exogenous Genes via an Ecdysone Receptor Complex” (Intrexon Corporation, priority 2007, published 2020)
Where two headings read alike, the source gives them in different places.

Legend:
[1] = molecular target: T1, [V390I/Y410E/E274V]-CfEcR (Choristoneura fumiferana, UniProt O77240); format: cell-based; conditions: 3T3 Cells; for RMFI (relative maximum fold induction): relative to GS-E ligand
T1 construct: assay construct b835
Description: (§1) Cellular gene switch assays were performed by transiently transfecting the following constructs in mouse embryonic fibroblast cells (NIH3T3). The wild-type D, E and F domains from Choristoneura fumiferana EcR or its V390I/Y410E/E274V mutant were fused to GAL4-DBD and placed under the control of the CMV promoter in the pBIND vector (Promega Corporation, Madison, Wis., USA). The DEF domains of EcRs shown were amplified using primers designed based on 20-25 nt sequences at the 5′ and 3′ ends. Restriction enzyme sites EcoR I/BamH I and Xba I were added to 5′ and 3′ primers respectively. The PCR products were digested with appropriate restriction enzymes and cloned into pBIND vector. The EcR LBDs cloned into pBIND vector were verified by sequencing. A chimeric RXR from Homo sapiens RXRP and Locusta migratoria RXR, fused to VP16-AD and placed under the control of an SV40e promoter, was constructed as previously described (Kumar P & Katakam A in Gene Transfer, Friedmann T and Rossi J, eds, pp. 643-651 (2007), Cold Spring Harbor Laboratory Press, Cold Spring Harbor, N.Y.). The inducible luciferase reporter plasmid pFRLuc (Stratagene Cloning Systems, La Jolla, Calif., USA), contains five copies of the GAL4 response element and a synthetic minimal promoter.
(§2) NIH3T3 cells were maintained at 37′C and 5% CO2 in Dulbecco's modified Eagle's medium (DMEM) supplemented with 10% bovine calf serum, both obtained from Mediatech Inc., Manassas, Va. Cells were planted in a 96-well plate at a density of 2,500 cells/well in 50 μL of growth medium. The following day cells were first treated with 35 μL of serum-free DMEM containing dimethyl sulfoxide (DMSO; control) or a DMSO solution containing ligand. Cells were then transfected with 15 μl of serum-free DMEM containing 0.04 μg of EcR construct, 0.04 ug of RXR construct, and 0.16 μg of luciferase reporter construct per well, using SuperFect™ transfection reagent (Qiagen Inc., Valencia, Calif., USA) according to the manufacturer's instructions. Ligands were tested at 8 doses from 0.01-33 μM and the final DMSO concentration was 0.33% in both control and treatment wells. After a 48 hour post-treatment and transfection incubation, the cells were assayed for luciferase activity using the Bright-Glo™ Luciferase Assay System (Promega Corporation, Madison, Wis., USA) following the manufacturer's instructions. EC50 values were measured minimally in duplicate.
(§3) Luciferase reporter gene expression was measured 48 h after cell treatment using Bright-Glo™ Luciferase Assay System from Promega (E2650). Luminescence was detected at room temperature using a Dynex MLX microtiter plate luminometer.
(§4) Each assay was conducted in two separate wells, and the two values were averaged. Fold inductions were calculated by dividing relative light units (“RLU”) in ligand treated cells with RLU in DMSO treated cells. EC50s were calculated from dose response data using a three-parameter logistic model. Relative Max FI was determined as the maximum fold induction of the tested ligand (an embodiment of the invention) observed at any concentration relative to the maximum fold induction of GS™-E ligand (3,5-dimethyl-benzoic acid N-tert-butyl-N′-(2-ethyl-3-methoxy-benzoyl)-hydrazide) observed at any concentration.

[2] = molecular target: wild-type Choristoneura fumiferana EcR (D, E and F domains) (Choristoneura fumiferana, UniProt O77240); format: cell-based; conditions: WT-CtEcR, 3T3 Cells; for RMFI (relative maximum fold induction): relative to GS-E ligand
Description: as §1, §2, §3, §4

| SMILES | EC50 ([1]; rac, read-out: EC50) | RMFI (relative maximum fold induction) ([1]; rac) | EC50 ([2]; rac, read-out: EC50) | RMFI (relative maximum fold induction) ([2]; rac) | EC50 ([1]; rac) | EC50 ([2]; rac) | EC50 ([1]; S) | RMFI (relative maximum fold induction) ([1]; S) | EC50 ([2]; S, read-out: EC50) | RMFI (relative maximum fold induction) ([2]; S) |
| --- | --- | --- | --- | --- | --- | --- | --- | --- | --- | --- |
| CCCC(N(NC(=O)c1cccc(OC)c1CC)C(=O)c1cc(C)cc(C)c1)C(C)(C)C (racemic) [rac-2] | 3.9 nM | 0.85 | ~100 nM | 0.60 |  |  |  |  |  |  |
| CCCC(N(NC(=O)c1c(Cl)cccc1Cl)C(=O)c1cc(C)cc(C)c1)C(C)(C)C (racemic) [rac-3] | 12.2 nM | 0.97 | 100 nM |  |  |  |  |  |  |  |
| CCCC(N(NC(=O)c1ccccc1OC)C(=O)c1cc(C)cc(C)c1)C(C)(C)C (racemic) [rac-4] | ~300 nM | 0.72 | ~2000 nM | 0.32 |  |  |  |  |  |  |
| CCCC(N(NC(=O)c1ccccc1F)C(=O)c1cc(C)cc(C)c1)C(C)(C)C (racemic) [rac-5] | 1.1 nM | 0.67 | 81 nM | 0.59 |  |  |  |  |  |  |
| CCCC(N(NC(=O)c1ccccc1Cl)C(=O)c1cc(C)cc(C)c1)C(C)(C)C (racemic) [rac-6] | 1.2 nM | 0.95 | 59 nM | 0.72 |  |  |  |  |  |  |
| CCCC(N(NC(=O)c1ccccc1Br)C(=O)c1cc(C)cc(C)c1)C(C)(C)C (racemic) [rac-7] | ~3 nM | 1.28 | 86 nM | 0.63 |  |  |  |  |  |  |
| CCCC(N(NC(=O)c1cccc(C)c1)C(=O)c1cc(C)cc(C)c1)C(C)(C)C (racemic) [rac-8] | 16.2 nM | 0.86 | 193 nM | 0.88 |  |  |  |  |  |  |
| CCCC(N(NC(=O)c1cccc(OC)c1)C(=O)c1cc(C)cc(C)c1)C(C)(C)C (racemic) [rac-9] | 7.1 nM | 0.63 | 304 nM | 0.84 |  |  |  |  |  |  |
| CCCC(N(NC(=O)c1cccc(Cl)c1)C(=O)c1cc(C)cc(C)c1)C(C)(C)C (racemic) [rac-10] | 23.9 nM | 0.86 | ~100 nM | 0.50 |  |  |  |  |  |  |
| CCCC(N(NC(=O)c1ccc(C)cc1)C(=O)c1cc(C)cc(C)c1)C(C)(C)C (racemic) [rac-11] | 6.3 nM | 0.73 | 89 nM | 0.66 |  |  |  |  |  |  |
| CCCC(N(NC(=O)c1ccc(CC)cc1)C(=O)c1cc(C)cc(C)c1)C(C)(C)C (racemic) [rac-12] | ~0.6 nM | 0.96 | ~20 nM | 0.79 |  |  |  |  |  |  |
| CCCC(N(NC(=O)c1ccc(OC)cc1)C(=O)c1cc(C)cc(C)c1)C(C)(C)C (racemic) [rac-13] | ~5 nM | 0.71 | ~100 nM | 0.54 |  |  |  |  |  |  |
| CCCC(N(NC(=O)c1ccc(Cl)cc1)C(=O)c1cc(C)cc(C)c1)C(C)(C)C (racemic) [rac-14] | ~20 nM | 0.83 | ~200 nM | 0.46 |  |  |  |  |  |  |
| CCCC(N(NC(=O)c1c(F)cccc1F)C(=O)c1cc(C)cc(C)c1)C(C)(C)C (racemic) [rac-15] | ~1 nM | 0.92 | 94 nM | 0.68 |  |  |  |  |  |  |
| CCCC(N(NC(=O)c1c(Cl)cccc1Cl)C(=O)c1cc(C)cc(C)c1)C(C)(C)C (racemic) [rac-16, rac-3,5-dimethyl-benzoic acid N-(1-tert-butyl-butyl)-N′-(2,6-dichloro-benzoyl)-hydrazide] |  | 0.73 |  | 0.43 | ~30 nM | ~300 nM |  |  |  |  |
| CCCC(N(NC(=O)c1ccc(OC)c(OC)c1)C(=O)c1cc(C)cc(C)c1)C(C)(C)C (racemic) [rac-17] | 720 nM | 0.51 | 4130 nM | 0.25 |  |  |  |  |  |  |
| CCCC(N(NC(=O)c1cc(F)cc(F)c1)C(=O)c1cc(C)cc(C)c1)C(C)(C)C (racemic) [rac-18] | ~3 nM | 1.00 | 30.5 nM | 0.26 |  |  |  |  |  |  |
| CCCC(N(NC(=O)c1cc(OC)c(C)c(OC)c1)C(=O)c1cc(C)cc(C)c1)C(C)(C)C (racemic) [rac-19] | 3930 nM | 0.15 | > 10000 nM |  |  |  |  |  |  |  |
| CCCC(N(NC(=O)c1ccc2c(c1C)OCO2)C(=O)c1cc(C)cc(C)c1)C(C)(C)C (racemic) [rac-20] | 12.1 nM | 0.92 | 99.3 nM | 0.90 |  |  |  |  |  |  |
| CCCC(N(NC(=O)c1ccc2c(c1C)OCCO2)C(=O)c1cc(C)cc(C)c1)C(C)(C)C (racemic) [rac-21] | ~0.1 nM | 0.85 | 1.32 nM | 0.86 |  |  |  |  |  |  |
| CCCC(N(NC(=O)c1ccc2c(c1CC)OCCO2)C(=O)c1cc(C)cc(C)c1)C(C)(C)C (racemic) [rac-22] | 0.059 nM | 0.79 | 0.499 nM | 0.88 |  |  |  |  |  |  |
| CCCC(N(NC(=O)c1cccc2ccccc12)C(=O)c1cc(C)cc(C)c1)C(C)(C)C (racemic) [rac-23] | 66 nM | 0.84 | 521 nM | 0.60 |  |  |  |  |  |  |
| CCCC(N(NC(=O)c1ccc2ccccc2c1)C(=O)c1cc(C)cc(C)c1)C(C)(C)C (racemic) [rac-24] | 61 nM | 0.62 | ~500 nM | 0.44 |  |  |  |  |  |  |
| CCCC(N(NC(=O)c1cccs1)C(=O)c1cc(C)cc(C)c1)C(C)(C)C (racemic) [rac-25] | 172 nM | 0.89 | 3160 nM | 0.52 |  |  |  |  |  |  |
| CCCC(N(NC(=O)c1cc(C)oc1C)C(=O)c1cc(C)cc(C)c1)C(C)(C)C (racemic) [rac-26] | 84 nM | 0.97 | 2140 nM | 0.76 |  |  |  |  |  |  |
| CCCC(N(NC(=O)c1ccc(Cl)nc1)C(=O)c1cc(C)cc(C)c1)C(C)(C)C (racemic) [rac-28] | 47 nM | 0.68 | 470 nM | 0.70 |  |  |  |  |  |  |
| CCCC(N(NC(=O)c1cccc(OC)c1C)C(=O)c1cc(C)cc(C)c1)C(C)(C)C (racemic) [rac-29] | 0.15 nM | 0.77 | 3.88 nM | 0.98 |  |  |  |  |  |  |
| CCC[C@H](N(NC(=O)c1ccc(Cl)nc1)C(=O)c1cc(C)cc(C)c1)C(C)(C)C [Example 46, (S)-3,5-Dimethyl-benzoic acid N-(1-tert-butyl-butyl)-N′-(6-chloro-pyridine-3-carbonyl)-hydrazide] |  |  |  |  |  |  | 3990 nM | 0.42 |  |  |
| CCC[C@H](N(NC(=O)c1ccc2ccccc2c1)C(=O)c1cc(C)cc(C)c1)C(C)(C)C [Example S-24] |  |  |  |  |  |  |  |  | 5380 nM | 0.13 |
